Data published in paper PMC9515202, “Bis-pharmacophore of cinnamaldehyde-clubbed thiosemicarbazones as potent carbonic anhydrase-II inhibitors” (Scientific Reports, 2022).

Columns and labels:
[1] = molecular target: bovine carbonic anhydrase II (bCA-II) (Bos taurus, UniProt P00921); experiment: Carbonic anhydrase II (CA-II) inhibition, spectrophotometric p-nitrophenyl acetate assay; format: biochemical; settings: pH 7.4, 25 °C; for IC50: bCA-II, substrate p-NPA, triplicate; for inhibition at 500 µM: pH 7.4, bCA-II, compound at 500 µM, read-out: % Inhibtion (500 µM)
Protocol: Evaluation of carbonic anhydrase inhibition was done by spectrophotometric technique as narrated by Pocker and Meany with little alteration[69],[70] as described previously. The process was carried out in HEPES-Tris buffer (20 mM) having pH 7.4 at 25 °C. Each inhibitory well contained 20 µL of CA-II enzyme solution (0.1 mg/mL HEPES-Tris buffer), 140 µL of HEPES-Tris buffer solution, 20 µL of the compound to be analyzed in HPLC grade DMSO. At 25 °C, the solution mixture was pre-incubated for 15 min. Substrate p-nitrophenyl acetate (p-NPA) (0.7 mM) was prepared in HPLC grade methanol and the reaction was initiated by the addition of 20 µL to a well in a 96-well-plate. The quantity of product formed was measured at 400 nm continually at 1 min gap for 30 min in a 96-well-plate using xMARK microplate spectrophotometer, Bio-Rad (USA). The inhibition activity of the controlled compound was considered as 100%. All the experiments were performed in triplicates of each used concentration, and the conclusions are expressed as a mean of the triplicate.
All thiosemicarbazones derivatives (3a–q) were tested against bovine carbonic anhydrase II (bCA-II).

Sequence of bovine carbonic anhydrase II (bCA-II) (P00921 whole entry): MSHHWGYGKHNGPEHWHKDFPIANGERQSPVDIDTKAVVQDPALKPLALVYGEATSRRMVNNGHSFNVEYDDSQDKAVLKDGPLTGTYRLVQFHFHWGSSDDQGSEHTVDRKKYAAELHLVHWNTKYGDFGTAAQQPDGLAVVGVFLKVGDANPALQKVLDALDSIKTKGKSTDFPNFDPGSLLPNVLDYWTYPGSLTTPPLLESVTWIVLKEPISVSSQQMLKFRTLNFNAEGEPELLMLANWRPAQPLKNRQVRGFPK

| IC50 [1] | inhibition at 500 µM [1] | melting point | SMILES |
| --- | --- | --- | --- |
| 46.6 ± 0.62 µM | 82% | 232 °C | Cc1ccc(NC(=S)N/N=C/C=C/c2ccc(N(C)C)cc2)cc1 [3a, (E)-2-((E)-3-(4-(Dimethylamino)phenyl)allylidene)-N-(p-tolyl)hydrazine-1-carbothioamide] |
| 40.4 ± 0.89 µM | 78.1% | 239 °C | Cc1cccc(C)c1NC(=S)N/N=C/C=C/c1ccc(N(C)C)cc1 [3b, (E)-2-((E)-3-(4-(Dimethylamino)phenyl)allylidene)-N-(2,6-dimethylphenyl)hydrazine-1-carbothioamide] |
| – | – | 180 °C | CN(C)c1ccc(/C=C/C=N/NC(=S)NCCc2ccccc2)cc1 [3c] |
| 36.6 ± 0.15 µM | 82.2% | 192 °C | CN(C)c1ccc(/C=C/C=N/NC(=S)Nc2cccc(Cl)c2Cl)cc1 [3d, (E)-N-(2,3-Dichlorophenyl)-2-((E)-3-(4-(dimethylamino)phenyl)allylidene)hydrazine-1-carbothioamide] |
| 19.7 ± 0.23 µM | 93.4% | 189 °C | CN(C)c1ccc(/C=C/C=N/NC(=S)Nc2ccccc2F)cc1 [3e, (E)-2-((E)-3-(4-(Dimethylamino)phenyl)allylidene)-N-(2-fluorophenyl)hydrazine-1-carbothioamide] |
| 17.9 ± 1.23 µM | 89.7% | 198 °C | COc1cccc(NC(=S)N/N=C/C=C/c2ccc(N(C)C)cc2)c1 [3f, (E)-2-((E)-3-(4-(Dimethylamino)phenyl)allylidene)-N-(3-methoxyphenyl)hydrazine-1-carbothioamide] |
| 12.1 ± 1.01 µM | 93% | 240 °C | CN(C)c1ccc(/C=C/C=N/NC(=S)Nc2ccc(Br)cc2)cc1 [3g, (E)-N-(4-Bromophenyl)-2-((E)-3-(4-(dimethylamino)phenyl)allylidene)hydrazine-1-carbothioamide] |
| 13.4 ± 0.52 µM | 77.1% | 202 °C | CN(C)c1ccc(/C=C/C=N/NC(=S)Nc2ccc(F)cc2F)cc1 [3h, (E)-N-(2,4-Difluorophenyl)-2-((E)-3-(4-(dimethylamino)phenyl)allylidene)hydrazine-1-carbothioamide] |
| 33.6 ± 0.42 µM | 84.9% | 220 °C | CC(C)c1ccc(NC(=S)N/N=C/C=C/c2ccc(N(C)C)cc2)cc1 [3i, (E)-2-((E)-3-(4-(Dimethylamino)phenyl)allylidene)-N-(4-isopropylphenyl)hydrazine-1-carbothioamide] |
| – | < 50% | 218 °C | CN(C)c1ccc(/C=C/C=N/NC(=S)Nc2cccc(F)c2)cc1 [3j, (E)-2-((E)-3-(4-(Dimethylamino)phenyl)allylidene)-N-(3-fluorophenyl)hydrazine-1-carbothioamide] |
| – | – | 196 °C | CN(C)c1ccc(/C=C/C=N/NC(=S)NCc2ccc(Cl)cc2)cc1 [3k] |
| 18.3 ± 1.32 µM | 78.2% | 232 °C | Cc1ccc(NC(=S)N/N=C/C=C/c2ccc(N(C)C)cc2)c(C)c1 [3l, (E)-2-((E)-3-(4-(Dimethylamino)phenyl)allylidene)-N-(2,4-dimethylphenyl)hydrazine-1-carbothioamide] |
| 14.7 ± 1.42 µM | 79.9% | 238 °C | CN(C)c1ccc(/C=C/C=N/NC(=S)Nc2ccc(Cl)cc2)cc1 [3m, (E)-N-(4-Chlorophenyl)-2-((E)-3-(4-(dimethylamino)phenyl)allylidene)hydrazine-1-carbothioamide] |
| 10.3 ± 0.62 µM | 63.2% | 192 °C | CN(C)c1ccc(/C=C/C=N/NC(=S)NCc2ccc(F)cc2)cc1 [3n] |
| 21.8 ± 0.85 µM | 81.8% | 215 °C | CN(C)c1ccc(/C=C/C=N/NC(=S)Nc2cccc(C#N)c2)cc1 [3o, (E)-N-(3-Cyanophenyl)-2-((E)-3-(4-(dimethylamino)phenyl)allylidene)hydrazine-1-carbothioamide] |
| – | – | 218 °C | CN(C)c1ccc(/C=C/C=N/NC(=S)Nc2ccccc2)cc1 [3p, (E)-2-((E)-3-(4-(Dimethylamino)phenyl)allylidene)-N-phenylhydrazine-1-carbothioamide] |
| – | – | 252 °C | CN(C)c1ccc(/C=C/C=N/NC(=S)NC2CCCCC2)cc1 [3q, (E)-N-Cyclohexyl-2-((E)-3-(4-(dimethylamino)phenyl)allylidene)hydrazine-1-carbothioamide] |
